This data set in a line: Particle size of spray-dried porogen powders by optical microscope. In kind it is physicochemical. The settings on record: spray dried from ethanol solution. The text has this:
Citric acid and benzoic acid were spray dried from ethanol solution (10% w/v solids) using a ProCepT model 4M8 system. The citric acid was collected in a single fraction in about 65% yield, while the benzoic acid was collected in two fractions with a total yield of around 55%. The powders were characterized for particle size and morphology using an Olympus BX60 optical microscope. […] The two preparations of benzoic acid differed primarily by the preponderance of ribbon-like particles in the second fraction. The citric acid powder blend was appreciably more dense than the benzoic acid powder blends, and the latter required more careful sweeping of the feeder hopper to promote conveyance. However, the ultimate extrusion, molding, and physical handling characteristics were similar between the blends.

2 compounds from patent publication US12678400B2, “Implantable devices for drug delivery with reduced burst release” (TITAN PHARMACEUTICALS, INC., priority 2016, dated 2026) can be followed below.

As to `O=C(O)CC(O)(CC(=O)O)C(=O)O` [citric acid], the Particle size is given as 10-20 μm.
For `O=C(O)c1ccccc1` [benzoic acid], the Particle size is on record as 30-150 μm.
